Experimental data as given in patent US10150728B2, “Alkylene derivatives” (Shionogi & Co., Ltd., priority 2013, dated 2018).

target: recombinant human ACC2 (Homo sapiens (Human), UniProt O00763); assay: Measurement of inhibitory activity on human ACC2 (MALDI-TOF MS, acetyl CoA to malonyl CoA conversion); type: biochemical; conditions: Tables 155-159
Outline: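 His-tagged human ACC2 (residues 27–2458) from baculovirus-infected Sf-9 cells was preincubated 1 h in pH 7.4 HEPES-KOH buffer with MgCl2, 6-10 mM potassium citrate, glutathione and BSA. Substrate solution held 1 mM ATP, 0.8 mM acetyl CoA and 25-50 mM bicarbonate. After 1–3 h at room temperature, malonyl CoA/(malonyl+acetyl CoA) was read by negative-mode MALDI-TOF MS; citrate, bicarbonate and time varied by enzyme lot.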

Sequence of recombinant human ACC2 (O00763 27-2458): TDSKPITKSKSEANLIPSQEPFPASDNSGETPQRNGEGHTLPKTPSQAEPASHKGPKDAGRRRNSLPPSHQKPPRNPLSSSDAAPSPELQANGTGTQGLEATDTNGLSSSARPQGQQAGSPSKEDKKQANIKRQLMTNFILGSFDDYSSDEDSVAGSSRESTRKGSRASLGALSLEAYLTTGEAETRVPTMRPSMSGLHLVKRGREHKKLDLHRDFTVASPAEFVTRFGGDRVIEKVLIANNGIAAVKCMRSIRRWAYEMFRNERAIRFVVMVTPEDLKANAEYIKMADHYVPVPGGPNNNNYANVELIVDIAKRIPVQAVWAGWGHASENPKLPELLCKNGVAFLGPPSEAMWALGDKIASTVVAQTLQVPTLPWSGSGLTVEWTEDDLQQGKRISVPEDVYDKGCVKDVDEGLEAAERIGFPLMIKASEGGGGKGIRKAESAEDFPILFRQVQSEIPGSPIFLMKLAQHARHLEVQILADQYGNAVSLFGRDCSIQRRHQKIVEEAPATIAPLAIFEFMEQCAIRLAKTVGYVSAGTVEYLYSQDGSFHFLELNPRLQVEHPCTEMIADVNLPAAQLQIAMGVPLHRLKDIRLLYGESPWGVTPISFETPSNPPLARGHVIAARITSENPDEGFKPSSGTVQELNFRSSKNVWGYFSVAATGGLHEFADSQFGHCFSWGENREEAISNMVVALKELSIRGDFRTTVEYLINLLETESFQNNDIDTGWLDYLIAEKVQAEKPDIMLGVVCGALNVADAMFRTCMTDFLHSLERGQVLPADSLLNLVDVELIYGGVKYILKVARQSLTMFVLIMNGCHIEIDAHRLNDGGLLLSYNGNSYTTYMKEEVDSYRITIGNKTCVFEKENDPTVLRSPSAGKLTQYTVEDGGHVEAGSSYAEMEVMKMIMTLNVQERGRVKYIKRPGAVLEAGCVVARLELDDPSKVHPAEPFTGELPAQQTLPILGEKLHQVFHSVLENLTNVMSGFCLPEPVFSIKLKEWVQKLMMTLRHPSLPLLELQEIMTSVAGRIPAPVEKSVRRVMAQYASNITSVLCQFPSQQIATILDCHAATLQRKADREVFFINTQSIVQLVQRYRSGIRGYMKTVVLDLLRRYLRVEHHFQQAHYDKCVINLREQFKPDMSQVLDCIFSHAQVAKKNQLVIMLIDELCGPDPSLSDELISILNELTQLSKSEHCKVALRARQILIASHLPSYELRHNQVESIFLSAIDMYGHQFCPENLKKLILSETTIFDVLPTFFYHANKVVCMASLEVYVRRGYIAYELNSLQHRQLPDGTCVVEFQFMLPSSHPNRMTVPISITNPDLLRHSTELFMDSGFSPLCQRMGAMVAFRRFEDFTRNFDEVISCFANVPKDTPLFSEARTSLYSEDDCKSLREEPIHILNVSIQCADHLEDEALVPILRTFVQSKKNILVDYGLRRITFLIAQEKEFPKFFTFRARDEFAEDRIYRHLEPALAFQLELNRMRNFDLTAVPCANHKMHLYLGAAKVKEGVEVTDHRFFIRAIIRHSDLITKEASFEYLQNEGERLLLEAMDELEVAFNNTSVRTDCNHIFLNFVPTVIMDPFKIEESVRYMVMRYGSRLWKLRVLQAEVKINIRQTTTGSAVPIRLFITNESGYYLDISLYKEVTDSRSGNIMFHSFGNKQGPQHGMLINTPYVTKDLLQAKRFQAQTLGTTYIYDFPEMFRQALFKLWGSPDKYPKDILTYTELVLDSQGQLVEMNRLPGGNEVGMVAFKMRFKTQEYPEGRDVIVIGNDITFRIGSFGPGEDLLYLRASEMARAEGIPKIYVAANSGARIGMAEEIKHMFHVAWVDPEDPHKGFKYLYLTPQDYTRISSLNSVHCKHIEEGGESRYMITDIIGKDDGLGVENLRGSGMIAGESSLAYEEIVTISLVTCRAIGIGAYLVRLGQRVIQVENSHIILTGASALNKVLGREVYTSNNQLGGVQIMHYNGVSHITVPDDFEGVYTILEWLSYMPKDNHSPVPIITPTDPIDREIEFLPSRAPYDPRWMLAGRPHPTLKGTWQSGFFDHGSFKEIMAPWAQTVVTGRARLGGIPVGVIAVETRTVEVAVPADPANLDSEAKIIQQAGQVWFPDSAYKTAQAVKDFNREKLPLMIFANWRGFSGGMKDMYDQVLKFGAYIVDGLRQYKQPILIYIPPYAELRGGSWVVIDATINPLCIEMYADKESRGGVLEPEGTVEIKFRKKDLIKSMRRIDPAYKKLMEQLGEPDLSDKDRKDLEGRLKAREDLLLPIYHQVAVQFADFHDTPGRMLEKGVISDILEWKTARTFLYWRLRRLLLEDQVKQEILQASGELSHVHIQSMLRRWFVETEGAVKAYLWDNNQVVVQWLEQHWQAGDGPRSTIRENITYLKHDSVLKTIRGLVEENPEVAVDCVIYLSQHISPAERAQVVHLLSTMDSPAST

| SMILES | IC50 [nM] |
| --- | --- |
| CC(=O)N[C@@H](C)CO[C@H]1C[C@H](COc2ncnc(OCc3ccc(C(F)(F)F)nc3)c2Cl)C1 [Compound I-351] | 87 |
| CC(=O)N[C@@H](C)CO[C@H]1C[C@H](COc2nccc3c2ccn3CC2CC2)C1 [Compound I-352] | 22 |
| CC(=O)N[C@@H](C)CO[C@H]1C[C@H](COc2ncnc(OCc3ncc(Cl)cn3)c2Cl)C1 [Compound I-353] | 11 |
| CC(=O)N[C@@H](C)CO[C@H]1C[C@H](COc2nccc(N3CCCC3)c2F)C1 [Compound I-358] | 19 |
| CC(=O)N[C@@H](C)CO[C@H]1C[C@H](COc2ncnc(OCc3cc(F)ccn3)c2Cl)C1 [Compound I-360] | 17 |
| CC(=O)N[C@@H](C)CO[C@H]1C[C@H](COc2nccc(OC3C[C@@H]4CC[C@@H]3C4)c2Cl)C1 (stereo partly shown) [Compound I-365] | 100 |
| CC(=O)N[C@@H](C)CO[C@H]1C[C@H](COc2nccc(OC3CCC3)c2Cl)C1 [Compound I-367] | 113 |
| CC(=O)N[C@@H](C)CO[C@H]1C[C@H](COc2nccc(OC3CCCCC3)c2Cl)C1 [Compound I-368] | 48 |
| CC(=O)N[C@@H](C)CO[C@H]1C[C@H](COc2nccc(OCC3CC3C)c2Cl)C1 (stereo partly shown) [Compound I-369] | 19 |
| CC(=O)N[C@@H](C)CO[C@H]1C[C@H](COc2nccc(OCC3(C#N)CC3)c2Cl)C1 [Compound I-371] | 198 |
| CC(=O)N[C@@H](C)CO[C@H]1C[C@H](COc2nccc(OCC(C)(C)C)c2Cl)C1 [Compound I-372] | 13 |
| COCCOc1ccnc(OC[C@H]2C[C@H](OC[C@H](C)NC(C)=O)C2)c1Cl [Compound I-373] | 894 |
| CC(=O)N[C@@H](C)CO[C@H]1C[C@H](COc2nccc(OCC3COC3)c2Cl)C1 [Compound I-374] | 637 |
| CC(=O)N[C@@H](C)CO[C@H]1C[C@H](COc2ncnc(OCc3ccccc3)c2Cl)C1 [Compound I-376] | 7 |
| CC(=O)N[C@@H](C)CO[C@H]1C[C@H](COc2ncnc(OCc3ccccn3)c2Cl)C1 [Compound I-377] | 39 |
| CC(=O)N[C@@H](C)CO[C@H]1C[C@H](COc2nccc(N3CCCC3)c2C)C1 [Compound I-378] | 144 |

| SMILES | IC50 [nM] |
| --- | --- |
| COc1c(-c2ccc(F)cc2)ccnc1OC[C@H]1C[C@H](OC[C@H](C)NC(C)=O)C1 [Compound I-379] | 258 |
| CC(=O)N[C@@H](C)CO[C@H]1C[C@H](COc2ncnc(OCc3ccccc3)c2F)C1 [Compound I-383] | 8 |
| CC(=O)N[C@@H](C)CO[C@H]1C[C@H](COc2ncnc(OCc3ncccc3Cl)c2Cl)C1 [Compound I-386] | 70 |
| CC(=O)N[C@@H](C)CO[C@H]1C[C@H](COc2nccc3c2cnn3Cc2ccccc2)C1 [Compound I-387] | 392 |
| CC(=O)N[C@@H](C)CO[C@H]1C[C@H](COc2ncnc(OCc3ccc(F)cc3)c2Cl)C1 [Compound I-390] | 7 |
| CC(=O)N[C@@H](C)CO[C@H]1C[C@H](COc2ncnc(NCc3ccccc3)c2Cl)C1 [Compound I-391] | 21 |
| CC(=O)N[C@@H](C)CO[C@H]1C[C@H](COc2ncnc(OCc3cccnc3)c2Cl)C1 [Compound I-392] | 69 |
| CC(=O)N[C@@H](C)CO[C@H]1C[C@H](COc2ncnc(OCc3ccncc3)c2Cl)C1 [Compound I-393] | 155 |
| CC(=O)N[C@@H](C)CO[C@H]1C[C@](C)(COc2nccc(-c3ccc(F)cc3)c2Cl)C1 [Compound I-394] | 18 |
| CC(=O)N[C@@H](C)CO[C@H]1C[C@H](COc2nccc(OCc3ccccc3)c2Cl)C1 [Compound I-395] | 7 |
| CC(=O)N[C@@H](C)CO[C@H]1C[C@H](COc2ncnc(OCc3ccc(Cl)cn3)c2Cl)C1 [Compound I-396] | 8 |
| CC(=O)N[C@@H](C)CO[C@H]1C[C@H](COc2ncnc(Oc3noc4ccccc34)c2Cl)C1 [Compound I-397] | 31 |
| CC(=O)N[C@@H](C)CO[C@H]1C[C@H](COc2ncnc(Oc3nsc4ccccc34)c2Cl)C1 [Compound I-399] | 40 |
| CC(=O)N[C@@H](C)CO[C@]1(C)C[C@@H](COc2nccc(-c3ccc(F)cc3)c2Cl)C1 [Compound I-400] | 17 |
| CC(=O)N[C@@H](C)CO[C@H]1C[C@H](COc2nccc(NCc3ccccc3)c2Cl)C1 [Compound I-401] | 23 |

Other lines, results leading:

| IC50 [nM] | SMILES |
| --- | --- |
| 11 | CC(=O)N[C@@H](C)CO[C@H]1C[C@H](COc2ncnc(OCc3ccc(F)cn3)c2Cl)C1 [Compound I-354] |
| 18 | CC(=O)N[C@@H](C)CO[C@H]1C[C@H](COc2ncnc(OCC3CC3)c2Cl)C1 [Compound I-355] |
| 66 | CC(=O)N[C@@H](C)CO[C@H]1C[C@H](COc2ncnc(OCC3CC3(F)F)c2Cl)C1 (stereo partly shown) [Compound I-356] |
| 103 | CC(=O)N[C@@H](C)CO[C@H]1C[C@H](COc2ncnc(OCC(C)(F)F)c2Cl)C1 [Compound I-357] |
| 21 | CC(=O)N[C@@H](C)CO[C@H]1C[C@H](COc2ncnc3c2ccn3CC2CC2)C1 [Compound I-359] |
| 570 | CC(=O)N[C@@H](C)CO[C@H]1C[C@H](COc2ncnc(OCc3ccc(Cl)nn3)c2Cl)C1 [Compound I-361] |
| 130 | CC(=O)N[C@@H](C)CO[C@H]1C[C@H](COc2ncnc3c2ccn3C(C)C2CC2)C1 (stereo partly shown) [Compound I-362] |
| 32 | CC(=O)N[C@@H](C)CO[C@H]1C[C@H](COc2ncnc(OCc3cc(F)ccn3)c2F)C1 [Compound I-363] |
| 44 | CC(=O)N[C@@H](C)CO[C@H]1C[C@H](COc2nccc(N3CCC(F)(F)C3)c2Cl)C1 [Compound I-364] |
| 31 | CC(=O)N[C@@H](C)CO[C@H]1C[C@H](COc2nccc(OC3C[C@@H]4CC[C@@H]3C4)c2Cl)C1 (stereo partly shown) [Compound I-366] |
| 13 | CC(=O)N[C@@H](C)CO[C@H]1C[C@H](COc2nccc(OCC3(C)CC3)c2Cl)C1 [Compound I-370] |
| 102 | CC(=O)N[C@@H](C)CO[C@H]1C[C@H](COc2nccc(N3CCC(F)(F)CC3)c2Cl)C1 [Compound I-375] |
| 59 | CC(=O)N[C@@H](C)CO[C@H]1C[C@H](COc2nccc(-c3ncc(C(F)(F)F)cn3)c2C)C1 [Compound I-380] |
| 155 | CC(=O)N[C@@H](C)CO[C@H]1C[C@H](COc2nccc3c2cnn3CC2CC2)C1 [Compound I-381] |
| 176 | CC(=O)N[C@@H](C)CO[C@H]1C[C@H](COc2nccc3c2OCCN3Cc2ccccc2)C1 [Compound I-382] |
| 364 | CC(=O)N[C@@H](C)CO[C@H]1C[C@H](COc2ncnc(OCc3cccc(Cl)n3)c2Cl)C1 [Compound I-384] |
| 4 | CC(=O)N[C@@H](C)CO[C@H]1C[C@H](COc2ncnc(OCc3cc(Cl)ccn3)c2Cl)C1 [Compound I-385] |
| 14 | CC(=O)N[C@@H](C)CO[C@H]1C[C@H](COc2ncnc(OCc3ccccc3F)c2Cl)C1 [Compound I-388] |
| 8 | CC(=O)N[C@@H](C)CO[C@H]1C[C@H](COc2ncnc(OCc3cccc(F)c3)c2Cl)C1 [Compound I-389] |
| 115 | CC(=O)N[C@@H](C)CO[C@H]1C[C@H](COc2ncnc(-n3oc4ccccc4c3=O)c2Cl)C1 [Compound I-398] |
| 83 | CC(=O)N[C@@H](C)CO[C@H]1C[C@H](COc2ncnc(N(C)Cc3ccccc3)c2Cl)C1 [Compound I-402] |
